Drawing on patent US11957759B1, “Rapidly accelerated fibrosarcoma (RAF) degrading compounds and associated methods of use” (Arvinas Operations, Inc., priority 2022, dated 2024), this text covers DC50 and Dmax for 13 compounds.

By DC50 is commonly meant the concentration at which degradation of the target reaches its halfway point. A lower DC50 goes with degradation at low concentration. Usually Dmax stands for the greatest extent of degradation seen. Read a low Dmax as shallow degradation.

A value given as a limit tells only on which side of the number the result lay.

The target of one assay is T1, B-RAF G466V (Homo sapiens, UniProt P15056, G466V).
T1 construct: expressed in transfected cells; host or cells: T-Rex 293 cells (Invitrogen #R71007)
The assay can be described thus: Target protein degradation, assay D: T-Rex 293 cells, HA-BRAF_G466V, 384 well format. The assay is classed as cell-based. As to conditions: T-Rex 293 HA-BRAF_G466V cells, 24 hours, Examples 83-269; for DC50: Assay D; for Dmax: T-REx-293, Assay D. A digest of the protocol:
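Degradation measured by high-content imaging of anti-HA immunofluorescence in fixed T-Rex 293 cells carrying inducible HA-BRAF G466V (1 ng/mL doxycycline), after 24 h PROTAC exposure at 37 °C over 300 nM–5 pM (1:3, 11 points, 0.5% DMSO). Outputs DC50 and Dmax as % of control; nuclei counts against DMSO wells gauge toxicity.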

In the next assay the target is T2, B-RAF V600E (Homo sapiens, UniProt P15056, V600E).
T2 construct: expressed in transfected cells; host or cells: T-Rex 293 cells (Invitrogen #R71007)
The assay can be described thus: Target protein degradation, assay C: T-Rex 293 cells, HA-BRAF_V600E, 384 well format. The assay is classed as cell-based. The settings on record: T-Rex 293 HA-BRAF_V600E cells, 24 hours, Examples 83-269; for DC50: Assay C; for Dmax: T-REx-293, Assay C. Put shortly:
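After 24 h exposure to an 11-point 1:3 series (300 nM–5 pM, 0.5% DMSO), fixed T-Rex 293 cells carrying HA-BRAF V600E (induced with 1 ng/mL doxycycline) were stained anti-HA and imaged. DC50 and Dmax were derived from BRAF intensity relative to control, and cytotoxicity from nuclear counts.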

T2 sequence (P15056 whole entry V600E): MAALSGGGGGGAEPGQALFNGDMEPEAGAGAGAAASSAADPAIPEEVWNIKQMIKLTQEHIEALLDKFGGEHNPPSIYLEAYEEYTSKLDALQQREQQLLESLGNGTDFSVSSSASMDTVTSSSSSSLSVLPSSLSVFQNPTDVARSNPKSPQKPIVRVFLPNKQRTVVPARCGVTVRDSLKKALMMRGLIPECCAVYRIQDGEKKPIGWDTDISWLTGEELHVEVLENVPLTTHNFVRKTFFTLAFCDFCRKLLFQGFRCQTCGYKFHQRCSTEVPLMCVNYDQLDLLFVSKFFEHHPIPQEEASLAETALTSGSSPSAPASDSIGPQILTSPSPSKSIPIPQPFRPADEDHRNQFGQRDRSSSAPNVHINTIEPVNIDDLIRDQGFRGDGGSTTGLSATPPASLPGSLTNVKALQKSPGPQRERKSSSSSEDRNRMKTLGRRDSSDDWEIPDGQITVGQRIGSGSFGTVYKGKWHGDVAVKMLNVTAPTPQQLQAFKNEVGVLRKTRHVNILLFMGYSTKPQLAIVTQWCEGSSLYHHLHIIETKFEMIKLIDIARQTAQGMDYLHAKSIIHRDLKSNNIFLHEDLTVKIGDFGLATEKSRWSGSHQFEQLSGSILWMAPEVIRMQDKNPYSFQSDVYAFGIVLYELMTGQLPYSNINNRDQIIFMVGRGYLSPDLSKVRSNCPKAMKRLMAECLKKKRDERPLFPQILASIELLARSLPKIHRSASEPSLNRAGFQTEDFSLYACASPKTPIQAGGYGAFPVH
T1 sequence (P15056 whole entry G466V): as the sequence (P15056 whole entry V600E) above, with G466V, E600V counted along it

With `N#Cc1c(NS(=O)(=O)N2CC[C@@H](F)C2)ccc(F)c1Oc1ccc2ncn(-c3ccc(N4CCC(CN5CC(c6ccc([C@@H]7CCC(=O)NC7=O)cc6F)C5)CC4)cc3)c(=O)c2c1` [Example 184, (3R)-N-(2-cyano-3-{[3-(4-{4-[(3-{4-[(3S)-2,6-dioxopiperidin-3-yl]-2-fluorophenyl}azetidin-1-yl)methyl]piperidin-1-yl}phenyl)-4-oxo-3,4-dihydroquinazolin-6-yl]oxy}-4-fluorophenyl)-3-fluoropyrrolidine-1-sulfonamide], the DC50 at B-RAF G466V was > 30 nM. Besides, at B-RAF V600E, the DC50 lay within 50 to 500 nM and the Dmax was ≤ 35%.

As for `COc1cc(N2CCN(CC3CCN(c4ccc(-n5cnc6ccc(Oc7c(F)ccc(NS(=O)(=O)N8CC[C@@H](F)C8)c7C#N)cc6c5=O)cn4)CC3)CC2)cc2c1C(=O)N(C1CCC(=O)NC1=O)C2=O` (stereo partly drawn) [Example 138, (3R)-N-{2-cyano-3-[(3-{6-[4-({4-[2-(2,6-dioxopiperidin-3-yl)-7-methoxy-1,3-dioxo-2,3-dihydro-1H-isoindol-5-yl]piperazin-1-yl}methyl)piperidin-1-yl]pyridin-3-yl}-4-oxo-3,4-dihydroquinazolin-6-yl)oxy]-4-fluorophenyl}-3-fluoropyrrolidine-1-sulfonamide], the values for the DC50 at B-RAF G466V and on B-RAF V600E were 1 to 10 nM and 50 to 500 nM, respectively. Also, the Dmax at B-RAF G466V and at B-RAF V600E was ≤ 35% throughout.

With `N#Cc1c(NS(=O)(=O)N2CC[C@@H](F)C2)ccc(F)c1Oc1ccc2ncn(-c3ccc(N4CC(C5CN(c6ccc7c(c6)C(=O)N(C6CCC(=O)NC6=O)C7=O)C5)C4)nc3)c(=O)c2c1` (stereo partly drawn) [Example 158, (3R)-N-(2-cyano-3-{[3-(6-{1'-[2-(2,6-dioxopiperidin-3-yl)-1,3-dioxo-2,3-dihydro-1H-isoindol-5-yl]-[3,3'-biazetidin]-1-yl}pyridin-3-yl)-4-oxo-3,4-dihydroquinazolin-6-yl]oxy}-4-fluorophenyl)-3-fluoropyrrolidine-1-sulfonamide], on B-RAF G466V, the DC50 was ≤ 1 nM and the Dmax was ≤ 35%. Also, on B-RAF V600E, the DC50 is 50 to 500 nM and the Dmax was ≤ 35%.

For the compound `N#Cc1c(NS(=O)(=O)N2CC[C@@H](F)C2)ccc(F)c1Oc1ccc2ncn(-c3cnc(N4CC5(CN(CC6CCN(c7ccc8c(c7)C(=O)N(C7CCC(=O)NC7=O)C8=O)CC6)C5)C4)nc3)c(=O)c2c1` (stereo partly drawn) [Example 134, (3R)-N-{2-cyano-3-[(3-(2-[6-({1-[2-(2,6-dioxopiperidin-3-yl)-1,3-dioxo-2,3-dihydro-1H-isoindol-5-yl]piperidin-4-yl}methyl)-2,6-diazaspiro[3.3]heptan-2-yl]pyrimidin-5-yl}-4-oxo-3,4-dihydroquinazolin-6-yl)oxy]-4-fluorophenyl}-3-fluoropyrrolidine-1-sulfonamide], at B-RAF G466V, the DC50 lay in the range of 1 to 10 nM and the Dmax is 35 to 70%. Also, on B-RAF V600E, the DC50 lay in the range of 50 to 500 nM and the Dmax lay in the range of 35 to 70%.

Take `N#Cc1c(NS(=O)(=O)N2CC[C@@H](F)C2)ccc(F)c1Oc1ccc2ncn(-c3ccc(N4CCC5(CCN(CC6CCN(c7ccc8c(c7)CN([C@H]7CCC(=O)NC7=O)C8=O)CC6)CC5)CC4)cc3)c(=O)c2c1` [Example 200, (3R)-N-(2-cyano-3-{[3-(4-{9-[(1-{2-[(3S)-2,6-dioxopiperidin-3-yl]-1-oxo-2,3-dihydro-1H-isoindol-5-yl}piperidin-4-yl)methyl]-3,9-diazaspiro[5.5]undecan-3-yl}phenyl)-4-oxo-3,4-dihydroquinazolin-6-yl]oxy}-4-fluorophenyl)-3-fluoropyrrolidine-1-sulfonamide]: on B-RAF G466V, the DC50 was 1 to 10 nM and the Dmax was in the range of 35 to 70%. Moreover, on B-RAF V600E, the DC50 lay in the range of 50 to 500 nM and the Dmax lay within 35 to 70%.

As to `N#Cc1c(NS(=O)(=O)N2CC[C@@H](F)C2)ccc(F)c1Oc1ccc2ncn(-c3ccc(N4CCC(CN5CCC(c6ccc([C@@H]7CCC(=O)NC7=O)cc6F)CC5)CC4)cc3)c(=O)c2c1` [Example 188, (3R)-N-(2-cyano-3-{[3-(4-{4-[(4-{4-[(3S)-2,6-dioxopiperidin-3-yl]-2-fluorophenyl}piperidin-1-yl)methyl]piperidin-1-yl}phenyl)-4-oxo-3,4-dihydroquinazolin-6-yl]oxy}-4-fluorophenyl)-3-fluoropyrrolidine-1-sulfonamide], at B-RAF G466V, the DC50 was in the range of 1 to 10 nM and the Dmax is 35 to 70%. In addition, at B-RAF V600E, the DC50 is 50 to 500 nM and the maximal degradation (Dmax) is 35 to 70%.

Consider `N#Cc1c(NS(=O)(=O)N2CC[C@@H](F)C2)ccc(F)c1Oc1ccc2ncn(-c3cccc(N4CCCC(CN5CCN(c6ccc7c(c6)CN([C@H]6CCC(=O)NC6=O)C7=O)CC5)C4)c3)c(=O)c2c1` (stereo partly drawn) [Example 93, (3R)-N-(2-cyano-3-{[3-(3-{3-[(4-{2-[(3S)-2,6-dioxopiperidin-3-yl]-1-oxo-2,3-dihydro-1H-isoindol-5-yl}piperazin-1-yl)methyl]piperidin-1-yl}phenyl)-4-oxo-3,4-dihydroquinazolin-6-yl]oxy}-4-fluorophenyl)-3-fluoropyrrolidine-1-sulfonamide], for which the results for the DC50 on B-RAF G466V and at B-RAF V600E were 1 to 10 nM and 50 to 500 nM, respectively. In addition, the figures for the Dmax on B-RAF G466V and at B-RAF V600E were ≤ 35% and 35 to 70%, respectively.

For `Cc1c(NS(=O)(=O)N2CC[C@@H](F)C2)ccc(F)c1Oc1ccc2ncn(-c3ccc(N4CCN(CC5CCN(c6ccc7c(c6)CN(C6CCC(=O)NC6=O)C7=O)CC5)CC4)cc3)c(=O)c2c1` (stereo partly drawn) [Example 210, (3R)-N-{3-[(3-{4-[4-({1-[2-(2,6-dioxopiperidin-3-yl)-1-oxo-2,3-dihydro-1H-isoindol-5-yl]piperidin-4-yl}methyl)piperazin-1-yl]phenyl}-4-oxo-3,4-dihydroquinazolin-6-yl)oxy]-4-fluoro-2-methylphenyl}-3-fluoropyrrolidine-1-sulfonamide], the DC50 at B-RAF G466V lay within 10 to 30 nM; at B-RAF V600E, 50 to 500 nM. For the same compound, the Dmax at B-RAF G466V and at B-RAF V600E was 35 to 70% each time.

In the case of `N#Cc1c(NS(=O)(=O)N2CC[C@@H](F)C2)ccc(F)c1Oc1ccc2ncn(-c3cnc(N4CCN(c5ccc6c(c5)CN(C5CCC(=O)NC5=O)C6=O)CC4)nc3)c(=O)c2c1` (stereo partly drawn) [Example 127, (3R)-N-(2-cyano-3-{[3-(2-{4-[2-(2,6-dioxopiperidin-3-yl)-1-oxo-2,3-dihydro-1H-isoindol-5-yl]piperazin-1-yl}pyrimidin-5-yl)-4-oxo-3,4-dihydroquinazolin-6-yl]oxy}-4-fluorophenyl)-3-fluoropyrrolidine-1-sulfonamide], on B-RAF G466V, the DC50 was > 30 nM. At B-RAF V600E, this compound registered a DC50 of 50 to 500 nM and a Dmax of 35 to 70%.

On to `N#Cc1c(NS(=O)(=O)N2CC[C@@H](F)C2)ccc(F)c1Oc1ccc2ncn(-c3cnc(N4CCC(CN5CCC6(CC5)CN(c5cccc7c5CN(C5CCC(=O)NC5=O)C7=O)C6)CC4)nc3)c(=O)c2c1` (stereo partly drawn) [Example 131, (3R)-N-{2-cyano-3-[(3-{2-[4-({2-[2-(2,6-dioxopiperidin-3-yl)-1-oxo-2,3-dihydro-1H-isoindol-4-yl]-2,7-diazaspiro[3.5]nonan-7-yl}methyl)piperidin-1-yl]pyrimidin-5-yl}-4-oxo-3,4-dihydroquinazolin-6-yl)oxy]-4-fluorophenyl}-3-fluoropyrrolidine-1-sulfonamide], for which, on B-RAF G466V, the DC50 was 1 to 10 nM and the Dmax is ≤ 35%. At B-RAF V600E, this compound yielded a DC50 of 50 to 500 nM and a Dmax of 35 to 70%.

As for `N#Cc1c(NS(=O)(=O)N2CC[C@@H](F)C2)ccc(F)c1Oc1ccc2ncn(-c3ccc(N4CCC(CN5CCC(Oc6cccc7c6C(=O)N(C6CCC(=O)NC6=O)C7=O)CC5)CC4)nc3)c(=O)c2c1` (stereo partly drawn) [Example 137, (3R)-N-(2-cyano-3-{[3-(6-{4-[(4-{[2-(2,6-dioxopiperidin-3-yl)-1,3-dioxo-2,3-dihydro-1H-isoindol-4-yl]oxy}piperidin-1-yl)methyl]piperidin-1-yl}pyridin-3-yl)-4-oxo-3,4-dihydroquinazolin-6-yl]oxy}-4-fluorophenyl)-3-fluoropyrrolidine-1-sulfonamide], at B-RAF G466V, the DC50 is > 30 nM and the Dmax is ≤ 35%. The DC50 at B-RAF V600E is > 500 nM.

Regarding `N#Cc1c(NS(=O)(=O)N2CC[C@@H](F)C2)ccc(F)c1Oc1ccc2ncn(-c3ccc(NC4CCN(c5ccc6c(c5)C(=O)N(C5CCC(=O)NC5=O)C6=O)CC4)nc3)c(=O)c2c1` (stereo partly drawn) [Example 157, (3R)-N-[2-cyano-3-({3-[6-({1-[2-(2,6-dioxopiperidin-3-yl)-1,3-dioxo-2,3-dihydro-1H-isoindol-5-yl]piperidin-4-yl}amino)pyridin-3-yl]-4-oxo-3,4-dihydroquinazolin-6-yl}oxy)-4-fluorophenyl]-3-fluoropyrrolidine-1-sulfonamide], the 50% degradation concentration (DC50) on B-RAF G466V was > 30 nM. At B-RAF V600E, this compound gave a DC50 of 50 to 500 nM and a Dmax of 35 to 70%.

Turning to `O=C1CCC(N2Cc3cc(N4CCC(CN5CCN(c6ccc(-n7cnc8ccc(Oc9c(F)ccc(NS(=O)(=O)N%10CC[C@@H](F)C%10)c9Cl)cc8c7=O)cc6)CC5)CC4)ccc3C2=O)C(=O)N1` (stereo partly drawn) [Example 199, (3R)-N-{2-chloro-3-[(3-{4-[4-({1-[2-(2,6-dioxopiperidin-3-yl)-1-oxo-2,3-dihydro-1H-isoindol-5-yl]piperidin-4-yl}methyl)piperazin-1-yl]phenyl}-4-oxo-3,4-dihydroquinazolin-6-yl)oxy]-4-fluorophenyl}-3-fluoropyrrolidine-1-sulfonamide], the DC50 on B-RAF G466V is 1 to 10 nM; at B-RAF V600E it was 50 to 500 nM. The Dmax on B-RAF G466V and at B-RAF V600E was 35 to 70% each time.
